# Reference: patent publication US20130096212A1, “Method and a Kit to Predict Response to Antidepressant Treatment” (UNIVERSITY OF TARTU, priority 2011, published 2013)
# How the values were obtained:
# [1] = system: outpatients with Major Depressive Disorder; test: 12-week open-label escitalopram treatment of MDD outpatients, Estonian sample (MADRS, HAM-D, CGI), also by rs41271330 genotype; format: in vivo, human; settings: for patients with moderate or severe depression (MADRS score 16 or more): end of 12 weeks
# Source text: The study sample consisted of 135 outpatients with Major Depressive Disorder, MDD (mean age 31.1±11.6 years, 68% females) recruited at the Psychiatry Clinic of Tartu University Hospital in Estonia. The diagnosis according to DSM-IV criteria was verified using Mini International Neuropsychiatric Interview (M.I.N.I. 5.0.0) and substantiated by psychiatric history and medical records. At least moderate severity of depression was required for inclusion as indicated by a Montgomery-Asberg Depression Rating Scale (MADRS) total score of 22 or higher. MDD patients with a secondary current comorbid anxiety disorder were included in this study, except for obsessive-compulsive disorder, posttraumatic stress disorder, or panic disorder, and these comprised 51% of the sample. Patients were excluded if they met diagnostic criteria for any of the following: bipolar disorder, psychotic disorder or features, current eating disorders, mental retardation, any pervasive developmental disorder or cognitive disorder, or alcohol or drug abuse-related disorders within 12 months prior to baseline. Additional exclusion criteria were acute infections, neurological or any other unstable general disorders, serious suicide risk, formal behaviour therapy, or systematic psychotherapy, pregnancy or breastfeeding. None of patients was known to have a history of hypersensitivity or non-response to escitalopram or other SSRIs. The Human Studies Ethics Committee of the University of Tartu and State Agency of Medicines had approved the study protocol, which was in accordance with Declaration of Helsinki. All participants provided their written informed consent.
# The patients were treated with escitalopram 10-20 mg/day for 12 weeks using an open-label, placebo non-controlled study design. No other medications, including anti-inflammatory drugs, were allowed during the study, except for hormonal contraceptives and zolpidem or zopiclone for insomnia. Clinical severity and treatment response were assessed bi-weekly using the MADRS and Clinical Global Impression scale (CGI). Hamilton Depression Scale (HAM-D) was also used as a secondary scale for clinical assessments. Additionally, the patients were asked to evaluate the depressive symptoms on the Beck Depression Inventory (BDI) and possible side effects on the Toronto Side-effect Scale (TSES) at each visit. All patients started treatment with escitalopram at a dose of 10 mg/day for the first 4 weeks. The patients showing at least 50% decline in the MADRS total score at week 4 continued taking 10 mg of escitalopram until the end of study. […] At the end of week 12 the patients were defined as responders if the decrease in both MADRS and HAM-D total scores was at least 50% and score on the CGI improvement scale was 2 or less. The remitters were defined if the scores were less than 12 on the MADRS and less than 8 on the HAM-D accordingly to earlier clinical trials. […] The severity of depressive symptoms and treatment response were rated blindly to genotypes by one psychiatrist. Each visit the patients were also asked to report about their regularity of taking the medication.
# (§1) These 38 markers were genotyped in the remaining 116 individuals, and tested for association with the clinical outcome. Three different outcome definitions were used: MADRS score at the final visit (week 12), relative change (percentage) in MADRS score since baseline, and absolute change in MADRS score since baseline. For each outcome, a univariate additive regression model was fitted to assess the association, as well as a multivariate model, adjusted for age, gender, age at first depression episode, baseline MADRS and BDI scores. Additionally a mixed-effects longitudinal model was fit for MADRS scores at week 0 to week 12, using a random subject-specific intercept. Also here, both unadjusted and adjusted models were fit. […]
# [2] = system: MDD patients; test: Replication sample: MDD patients treated with escitalopram for 12 weeks, MADRS change by rs41271330 genotype; format: in vivo, human; settings: 394 patients, SE=3%
# Source text: as §1, with “Replication sample consisted of 394 patients treated with escitalopram for 12 weeks. All the patients were of European origin. […] For validation of significant markers from previous step 5 SNPs were genotyped with pre-designed Taqman assays and one SNP was genotyped with Sanger sequencing. These” for “These”, “fit. Age at recruitment, gender, age at first depression episode and baseline BDI score appeared to be independently predictive (p<0.05) for at least one of the outcomes after adjusting for other covariates in a multivariate regression model and were therefore used as adjustment variables for genotype-outcome association.” for “fit.”
structure (smiles),measurement,setting,value
CN(C)CCC[C@@]1(c2ccc(F)cc2)OCc2cc(C#N)ccc21 [escitalopram],patients who discontinued treatment due to lack of efficacy or side effects,[1]; 12-week study,6.7%
same,decrease of relative MADRS score reduction from baseline per copy of the rs41271330 minor allele,"[1]; Estonian sample, 116 patients, SE=6%",18%
same,patients who needed an increased dose after the initial 4 weeks,[1]; carriers of rs41271330 minor allele,88.9%
same,patients with moderate or severe depression (MADRS score 16 or more),"[1]; carriers of rs41271330 minor allele (A), 14/27",52%
same,patients with moderate or severe depression (MADRS score 16 or more),"[1]; homozygous for rs41271330 major allele (G), 19/89",22%
same,patients with insufficient or partial response to treatment,[1]; end of week 12,32.6%
same,patients defined as responders,"[1]; end of week 12, 10-20 mg/day, 135 MDD outpatients, at least 50% decrease in MADRS and HAM-D and CGI improvement 2 or less",60.7%
same,patients who achieved remission,"[1]; end of week 12, MADRS less than 12 and HAM-D less than 8, of total sample",58.5%
same,patients who needed an increased dose after the initial 4 weeks,[1]; homozygous for rs41271330 major allele,62.9%
same,responders among the patients whose daily dose was increased and kept at 20 mg,"[1]; of 85 patients on 20 mg, end of study",41 patients
same,number of patients with MADRS score at week 12 of 0...7,[1]; rs41271330 A/G + A/A,9
same,number of patients with MADRS score at week 12 of 8...15,[1]; rs41271330 A/G + A/A,4
same,number of patients with MADRS score at week 12 of 16...25,[1]; rs41271330 A/G + A/A,10
same,number of patients with MADRS score at week 12 of >25,[1]; rs41271330 A/G + A/A,4
same,share of patients with MADRS score at week 12 of 0...7,[1]; rs41271330 A/G + A/A,33%
same,share of patients with MADRS score at week 12 of 8...15,[1]; rs41271330 A/G + A/A,15%
same,share of patients with MADRS score at week 12 of 16...25,[1]; rs41271330 A/G + A/A,37%
same,share of patients with MADRS score at week 12 of >25,[1]; rs41271330 A/G + A/A,15%
same,number of patients with MADRS score at week 12 of 0...7,[1]; rs41271330 G/G,61
same,number of patients with MADRS score at week 12 of 8...15,[1]; rs41271330 G/G,9
same,number of patients with MADRS score at week 12 of 16...25,[1]; rs41271330 G/G,15
same,number of patients with MADRS score at week 12 of >25,[1]; rs41271330 G/G,4
same,share of patients with MADRS score at week 12 of 0...7,[1]; rs41271330 G/G,69%
same,share of patients with MADRS score at week 12 of 8...15,[1]; rs41271330 G/G,10%
same,share of patients with MADRS score at week 12 of 16...25,[1]; rs41271330 G/G,17%
same,share of patients with MADRS score at week 12 of >25,[1]; rs41271330 G/G,4%
same,decrease of relative MADRS score reduction from baseline per copy of the rs41271330 minor allele,[2],7%
